Results as given in US20130209386A1, “NEW USES” (EVOCUTIS PLC, priority 2010, published 2013).
“And” between values parts separate entries of the source, which are not always exact repeats. Equal entries are not always repeated. Where two headings read alike, the source gives them in different places. Marks after values point to notes of the source that are not given here.

Experiments:
[1] = tested on: Propionibacterium acnes NCTC 737; assay: Disc diffusion assay (DDA) and synergy disc diffusion assay (SDDA); type: cell-based
Description: (c) Disc Diffusion Assay (DDA)
This is an internationally recognised standard method for qualitatively assessing the antimicrobial activity of a compound or combination of compounds.
A sterile paper disc was impregnated with a sample of the test compound(s) in a suitable solvent (or applied neat) and 30 minutes allowed for any of the solvents to evaporate (where possible). The disc was then placed on an agar plate onto which the test micro-organism had been inoculated. The plate was then incubated under the conditions described above, following which it was examined visually for signs of microbial growth. […] The diameter of this zone of “inhibition” was measured using a ProtoCOL™ automated zone sizer (Synbiosis, Cambridge, UK).
(d) Synergy Disc Diffusion Assay (SDDA)
This is a variation on the DDA method, in which two compounds are tested together for their combined antimicrobial activity.
Two test compounds A and B were placed on a single paper disc and the above described DDA procedure repeated.
The two compounds were then subjected in combination to the SDDA assay described above.
MIC/MBC experiments were performed in duplicate and (S)DDA experiments in triplicate.
The tropolone was dissolved in ethanol.

[2] = tested on: Propionibacterium acnes NCTC 737; assay: Minimum inhibitory concentration (MIC) assay; type: cell-based
Description: (§1) The first test organism used was Propionibacterium acnes NCTC 737. This is a propionibacterial strain and is the type strain of the genus; it is fully susceptible to antibiotics. The propionibacteria are clinically significant due to their involvement in acne. They are also opportunistic pathogens in compromised hosts. Activity observed against these micro-organisms is expected to be a good predictor of activity against acne.
(§2) The propionibacteria were cultured and maintained on Wilkins-Chalgren Anaerobe Medium (agar and broth) at pH 6.0; all cultures were incubated anaerobically at 37° C. for 72 hours.
(a) Minimum Inhibitory Concentration (MIC) Assay
This is a standard international method for quantitatively assessing the antimicrobial activity of a compound in a liquid medium. The method used a sterile 96-well microtitre plate, capable of holding about 200 μl of liquid per well. The wells contained liquid culture medium and ranges of decreasing concentrations of the relevant test compound in doubling dilutions (eg 1000, 500, 250, 125 . . . μg/ml, etc, down to 0.49 μg/ml). The culture media were as described above.
(§3) The wells were inoculated with a liquid suspension of freshly grown micro-organism and incubated under the conditions described above. After incubation, the microtitre plate was examined visually (with the aid of a light box) for cloudiness in each well, which would indicate microbial growth. The MIC value was recorded as the lowest concentration of test compound required to inhibit microbial growth, ie the lowest concentration for which the liquid in the well remained clear.
The assays included both negative (culture medium with no micro-organisms) and positive (culture medium plus diluting solvent plus micro-organism) controls.

C. striatum NCTC 764 = assay: Fixed ratio combination MIC/MBC assays; type: cell-based, Corynebacterium striatum
Description: The second test organism used was Corynebacterium striatum NCTC 764. This is a Gram-positive bacterium which is closely related to organisms (aerobic diphtheroids of the genus Corynebacterium) that cause body odour (Guillet et al, Eur J Dermatol, 2000 Jan-Feb, 10(1): 41-2). The C. striatum was cultured and maintained on Mueller-Hinton Medium (agar and broth) at pH 7.3 (±0.1); cultures were incubated aerobically at 37° C. for 18-24 hours.
(§4) (g) Fixed Ratio Combination MIC/MBC Assays
(§5) This method used a sterile 96-well microtitre plate, capable of holding about 200 μl of liquid per well. The wells contained liquid culture medium and ranges of decreasing concentrations of the relevant test compounds alone in doubling dilutions (eg 1000, 500, 250, 125 . . . μg/ml, etc. down to 0.49 μg/ml) or doubling dilutions of a combination of two compounds mixed initially at a fixed concentration ratio (based on molarity in this instance). The culture medium was as described above.
as §3, with “compounds alone or concentrations of the mixture of the two test compounds” for “compound”, “the” for “the lowest concentration for which the”
(§6) The assays were conducted in triplicate and included both negative (culture medium with no micro-organisms) and positive (culture medium plus diluting solvent(s) plus micro-organism) controls.
(§7) These samples were then individually sub-cultured on antibiotic-free agar medium, under the incubation conditions described above. Following incubation they were examined visually for microbial growth.
(§8) Thus for each mixture tested, the FIC for compound A (FICA)=MIC for (A+B)/MIC for A alone. Similarly the FIC for compound B (FICB)=MIC for (A+B)/MIC for B alone. The overall FICI=FICA+FICB.
(§9) FBC & FBCI were calculated in the same manner using recorded MBC values.

[3] = tested on: Propionibacterium acnes NCTC 737; assay: Minimum biocidal concentration (MBC) assay; type: cell-based
Description: as §1, §2
(b) Minimum Biocidal Concentration (MBC) Assay
This assay, normally carried out after an MIC assay, determines the minimum concentration of a compound that is lethal to the micro-organism being tested.
as §7

P. acnes NCTC 737 = assay: Fixed ratio combination MIC/MBC assays; type: cell-based, Propionibacterium acnes
Description: as §4, §5
as §3, with “compounds alone or concentrations of the mixture of the two test compounds” for “compound”, “the” for “the lowest concentration for which the”
as §6, §7, §8, §9

[4] = compound alone, 12.5 μg per disc (gluconate, picolinate 25 μg; silicate 12.4 μg; chlorophyllin 200 μg)
[5] = copper salt + tropolone versus the greater single zone
[6] = copper salt combined with tropolone on one disc, 12.5 μg each (exceptions b187)
[7] = P. acnes NCTC 737, compound alone
[8] = C. striatum NCTC 764, compound alone

Row | Compound | DDA zone of inhibition diameter [1, 4] | SDDA area increase [1, 5] | SDDA increase [1, 5] | (S)DDA with tropolone [1, 6] | MIC [2, 7] | MBC (C. striatum NCTC 764; [8]) | MIC (C. striatum NCTC 764; [8]) | MBC [3, 7] | MIC/MBC ratio [3, 7] | also measured
1 | [Cl][Cu][Cl] [Copper (II) chloride] | 32.14 mm | 1.94% | 0.31 mm | 32.45 mm | 1.95 µg/mL | >34.4** μg/ml | >34.4** μg/ml | 31.25 µg/mL | 0.06 | 
2 | Copper (II) picolinate | 35.25 mm | −14.13% | −2.58 mm | 32.66 mm | 62.5 µg/mL | >78.8** μg/ml | >78.8** μg/ml | 62.5 µg/mL | 1 | 
3 | CC(=O)[O-].CC(=O)[O-].CC(=O)[O-].[Bi+3] [Bismuth (III) acetate] |  |  |  |  |  |  |  |  |  | MBC (P. acnes NCTC 737; compound alone): >46.4** μg/ml; MIC (P. acnes NCTC 737; compound alone): 11.6 µg/mL
4 | Copper (II) salicylate |  |  |  |  |  |  |  |  |  | (S)DDA with tropolone [1]: 32.87 mm; DDA zone of inhibition diameter [1]: 28.32 mm; SDDA area increase [1]: 34.70%; SDDA increase [1]: 4.55 mm; MIC [2]: 7.8 µg/mL; MBC (C. striatum NCTC 764): >86** μg/ml; MIC (C. striatum NCTC 764): >86** μg/ml; MBC [3]: 31.25 µg/mL; MIC/MBC ratio [3]: 0.25
5 | O=C([O-])CC(O)(CC(=O)[O-])C(=O)[O-].[Bi+3] [Bismuth (III) citrate] |  |  |  |  |  |  |  |  |  | MBC (P. acnes NCTC 737; compound alone): 8.5 µg/mL; MIC (P. acnes NCTC 737; compound alone): 2.1 µg/mL; MBC (C. striatum NCTC 764): >67.9** μg/ml; MIC (C. striatum NCTC 764): >67.9** μg/ml
6 | Copper (II) silicate | 33.80 mm | 3.08% | 0.52 mm | 34.32 mm | 4.84 µg/mL | >35.7** μg/ml | >35.7** μg/ml | 38.75 µg/mL | 0.125 | 
7 | [Cu+].[I-] [Copper (I) iodide] | 29.66 mm | 24.28% | 3.41 mm | 33.07 mm | 7.8 µg/mL | >97.5** μg/ml | >97.5** μg/ml | 31.25 µg/mL | 0.25 | 
8 | [Cl][Bi]([Cl])[Cl] [Bismuth (III) chloride] |  |  |  |  |  |  |  |  |  | MBC (P. acnes NCTC 737; compound alone): 27 µg/mL and 40 µg/mL
9 | NCC(=O)[O-].NCC(=O)[O-].[Cu+2] [Copper (II) glycinate] |  |  |  |  |  |  |  |  |  | MBC (C. striatum NCTC 764): >54.2** μg/ml; MIC (C. striatum NCTC 764): >54.2** μg/ml
10 | CSCC[C@H](NC(C)=O)C(=O)[O-].CSCC[C@H](NC(C)=O)C(=O)[O-].[Cu+2] [Copper (II) acetylmethionate] | 10.23 mm | 306.27% | 13.44 mm | 26.67 mm | 7.8 µg/mL |  |  | 125 µg/mL | 0.06 | 
11 | Copper (II) citrate dihydrate |  |  |  |  |  |  |  |  |  | (S)DDA with tropolone [1]: 32.45 mm; DDA zone of inhibition diameter [1]: 32.04 mm; SDDA area increase [1]: 2.60%; SDDA increase [1]: 0.41 mm; MIC [2]: 1.95 µg/mL; MBC (C. striatum NCTC 764): >45** μg/ml; MIC (C. striatum NCTC 764): >45** μg/ml; MBC [3]: 31.25 µg/mL; MIC/MBC ratio [3]: 0.06
12 | CC(C)c1cccc(=O)c(O)c1 [Hinokitiol, 2-hydroxy-4-isopropyl-2,4,6-cycloheptatrien-1-one] |  |  |  |  |  |  |  |  |  | MBC (P. acnes NCTC 737; Cutibacterium acnes, NCTC737, compound alone, read-out: MBC): 62.5 µg/mL; MIC (P. acnes NCTC 737; Cutibacterium acnes, NCTC737, compound alone, read-out: MIC): 31.2 µg/mL
13 | Copper (II) gluconate | 26.25 mm | 40.43% | 4.86 mm | 31.11 mm | 62.5 µg/mL | >116** μg/ml | >116** μg/ml | 125 µg/mL | 0.5 | 
14 | O.O=C(O)CC(O)(CC(=O)O)C(=O)O.[Ag].[Ag].[Ag] [Silver (I) citrate hydrate] |  |  |  |  |  | 11.3 µg/mL | 2.83 µg/mL |  |  | 
15 | Bismuth (III) subnitrate |  |  |  |  |  | >249.4** μg/ml | >249.4** μg/ml |  |  | MBC (P. acnes NCTC 737; compound alone): 15.6 µg/mL; MIC (P. acnes NCTC 737; compound alone): 3.9 µg/mL
16 | O=C1CC[C@@H](C(=O)[O-])N1.O=C1CC[C@@H](C(=O)[O-])N1.[Cu+2] [Copper (II) PCA] | 23.36 mm | 55.70% | 5.79 mm | 29.15 mm | 15.6 µg/mL | >81.9** μg/ml | >81.9** μg/ml | 62.5 µg/mL | 0.25 | 
17 | Sodium copper (II) chlorophyllin | 0.00 mm | 220.07% | 10.44 mm | 23.67 mm | 15.6 µg/mL | >185** μg/ml | 23.2 µg/mL | 31.25 µg/mL | 0.5 | 
18 | CC(=O)c1c([O-])c(C)c([O-])c2c1OC1=CC(=O)C(C(C)=O)C(=O)C12C.[Cu+2] (centres unmarked) [Copper (II) usnate] | 38.35 mm | 22.13% | 4.03 mm | 42.38 mm | 0.25 µg/mL | 6 µg/mL | 3 µg/mL | 1.95 µg/mL | 0.125 | 
19 | O=C(O)c1cc(O)c2c(c1)[O][Bi]([OH])[O]2 [Bismuth (III) subgallate] |  |  |  |  |  | >67.2** μg/ml | >67.2** μg/ml |  |  | MBC (P. acnes NCTC 737; compound alone): >67.2** μg/ml; MIC (P. acnes NCTC 737; compound alone): >67.2** μg/ml
20 | Copper (II) carbonate basic | 9.10 mm | 102.17% | 5.58 mm | 18.81 mm | 7.8 µg/mL | >28.3** μg/ml | >28.3** μg/ml | 31.25 µg/mL | 0.25 | 
21 | O=C([O-])CN(CCN(CC(=O)[O-])CC(=O)[O-])CC(=O)[O-].[Cu+2].[Na+].[Na+] [EDTA copper (II) disodium salt] | 10.03 mm | 328.62% | 14.16 mm | 27.39 mm | 7.8 µg/mL |  |  | >250 µg/mL | <0.03 | 
